# Assay results from patent US7253286B2, “Nitrogen-containing aromatic derivatives” (Eisai Co., Ltd, priority 2000, dated 2007).
# Legend:
# VEGFR2 = molecular target: T1, VEGFR2 (Homo sapiens, UniProt P35968); experiment: Inhibition against VEGFR2 kinase (receptor tyrosine kinase activity, HTRF method); assay type: biochemical; conditions: His6-VEGFR2 cytoplasmic domain, biotin-poly(GT) substrate, ATP, 30° C. 10 minutes, read-out: IC50 (concentration required for 50% inhibition of VEGFR2 kinase activity)
# T1 construct: coding for the cytoplasmic domain, beginning with lysine 791 and including the termination codon; made in house; host or cells: Sf9 insect cells (baculovirus, pFastBacHis)
# Text: Measurement of Inhibition Against Receptor Tyrosine Kinase Activity
# This assay is used to determine inhibition of a test substance on tyrosine kinase activity. DNA coding for the cytoplasmic domain of VEGFR2 is obtained by total cDNA synthesis (Edwards M, International Biotechnology Lab 5(3), 19–25, 1987) or by cloning. Expression in an appropriate expression system can produce a polypeptide with tyrosine kinase activity. […] For VEGFR2 (Genbank Accession No. L04947), the 1.7 kb DNA fragment described by Terman et al. (Oncogene, 6(9), 1677–1683, 1991), coding for the cytoplasmic domain, beginning with lysine 791 and including the termination codon, was isolated from a human placental cDNA library (purchased from Clontech Laboratories, Inc.) and cloned in a Baculovirus expression vector (pFastBacHis, purchased from GIBCO BRL) The recombinant construct was transfected into insect cells (Spondoptea frugiperda9 (Sf9)) to prepare a recombinant Baculovirus. (Instructions for preparation and use of recombinant Baculovirus maybe found in standard texts, such as “Bac-To-Bac Baculovirus Expression System” (GIBCO BRL).) The cytoplasmic fragment starting from lysine 398 (FGFR1, Genbank Accession No. X52833), the cytoplasmic fragment starting from lysine 558 (PDGFRβ, Genbank Accession No. M21616) or the cytoplasmic fragment starting from lysine 974 (HGFR, Genbank Accession No. J02958) may be cloned and expressed by the same method for use in assays for other tyrosine kinases. EGFR was purchased from Sigma Co. (Product No. E-2645).
# For expression of the VEGFR2 tyrosine kinase, Sf9 cells were infected with the VEGFR2 recombinant virus and collected after 48 hours. The collected cells were rinsed with ice-cooled phosphate buffered saline (PBS) and then resuspended using 20 ml of ice-cooled Lysis Buffer (50 mM Tris-HCl (pH 8.5), 5 mM 2-mercaptoethanol, 100 mM KCl, 1 mM phenylmethylsulfonyl fluoride, 1% (v/v) NP-40) per 1.5×10^8 cells. The suspension was centrifuged at 12,000 rpm for 30 minutes at 4° C. and the supernatant was obtained.
# The supernatant was added to a Ni—NTA agarose column (3 ml, purchased from Qiagen) equilibrated with Buffer A {20 mM Tris-HCl (pH 8.5), 5 mM 2-mercaptoethanol, 500 mM KCl, 20 mM imidazole, 10% (v/v) glycerol}. The column was washed with 30 ml of Buffer A, and then with 6 ml of Buffer B {20 mM Tris-HCl (pH 8.5), 5 mM 2-mercaptoethanol, 1M KCl, 10% (v/v) glycerol}, and finally with 6 ml of Buffer A. After washing, it was eluted with 6 ml of Buffer C {20 mM Tris-HCl (pH8.5), 5mM2-mercaptoethanol, 100 mMKCl, 100 mM imidazole, 10% (v/v) glycerol}. The eluate was placed on a dialysis membrane (purchased from Spectrum Laboratories) and dialyzed with a dialysis buffer {20 mM Tris-HCl (pH 7.5), 10% (v/v) glycerol, 1 mM dithiothreitol, 0.1 mM Na3VO4, 0.1 mM EGTA}. After dialysis, it was supplied for SDS-electrophoresis, and the recombinant protein (His6-VEGFR2, cytoplasmic domain of VEGFR2 fused with 6 histidine residues at the N-terminus) detected at a molecular weight of approximately 100 kDa with Coumassie Brilliant Blue staining was assayed using BSA (bovine serum albumin, purchased from Sigma Co.) as the standard substance, and stored at −80° C. until use. Using the same method for the cytoplasmic domains of FGFR1, PDGFRβ and HGFR yielded respective recombinant proteins fused with 6 histidine residues at the N-termini (His6-FGFR1, His6-PDGFRβ or His6-HGFR).
# The tyrosine kinase reaction was conducted as follows. […]
# [1] = system: Human Umbilical Vein Endothelial Cells (HUVECs); experiment: Inhibition against invasive tube formation by vascular endothelial cells in response to stimulation by angiogenic factor mixture; assay type: cell-based; set-up: key: the number of tubes formed in the absence of the test substance was designated as +++; scored on the 5-level scale of +++, ++, +, +/−, −; scored on the 5-level scale of +++, ++, +, +/−, −; scored on the 5-level scale of +++, ++, +, +/−, −; − was assigned if absolutely no tubes formed; conditions: HUVEC on fibrin gel, EGF/FGF2/VEGF/HGF/TNF-α mixture, 6th day, MTT staining; for number of tubes formed in the fibrin gel (score) at 0.01 μM: test substance 0.01 μM; for number of tubes formed in the fibrin gel (score) at 0.1 μM: test substance 0.1 μM; for number of tubes formed in the fibrin gel (score) at 1.0 μM: test substance 1.0 μM
# Protocol: Inhibition Against Invasive Tube Formation by Vascular Endothelial Cells in Response to Stimulation by Angiogenic Factor Mixture
# Human Umbilical Vein Endothelial Cells (HUVECs) were isolated according to a reported method (Shinseikagaku Jikken Koza [New Biochemistry Experiment Lectures], “Saibo Baiyo Gijutsu” [Cell Culturing Techniques], p.197–202), and were cultured in a 5% CO2 incubator (37° C.) using EGM-2 medium (purchased from Clonetics Corp.) until the cells reached confluency. After adding 0.4 ml of bovine fibrinogen (purchased from Sigma Co.) to the inner well of a Transwell culturing plate (purchased from Coster Inc.), it was hardened with 0.7 units/ml of thrombin (purchased from Sigma Co.). The HUVECs were recovered using trypsin-EDTA and then suspended in human endothelial serum free medium basal growth medium (hereinafter abbreviated as SFM, purchased from GIBCO BRL), and 0.4 ml of the cell suspension (1.4×10^5 cells) was seeded onto the hardened fibrin gel and cultured for approximately 4 hours in a 5% CO2 incubator (37° C.). After 4 hours, there was added to the outer chamber of the Transwell 1.5 ml of an SFM solution containing a mixture of angiogenic factors {10 ng/ml EGF (purchased from GIBCO BRL), 30 ng/ml FGF2 (purchased from GIBCO BRL), 75 ng/ml VEGF (purchased from Wako Pure Chemical Industries Co., Ltd.), 50 ng/ml HGF (purchased from R&D Co.) and 7.5 ng/ml TNF-α (purchased from Genzyme Corp.) [The concentrations of the angiogenic factors differed slightly according to the HUVEC lot.]} and a diluted test substance, and culturing was carried out in a 5% CO2 incubator (37° C.). On the 2nd and 4th days after adding the test substance, the medium was exchanged with 1.5 ml of freshly prepared SFM solution containing the angiogenic factor mixture and test substance. Upon aspirating off the culture supernatant in the inner well on the 6th day after the initial addition of the test substance, 0.4 ml of a 3.3 mg/ml MTT solution dissolved in PBS (purchased from Sigma Corp.) was added and culturing was performed for approximately 1 hour in a 5% CO2 incubator (37° C.). The number of tubes formed in the fibrin gel stained with MTT was scored based on microscope observation. Specifically, the number of tubes formed in the absence of the test substance was designated as +++, while − was assigned if absolutely no tubes formed. The number of tubes formed in the presence of the test substance was scored on the 5-level scale of +++, ++, +, +/−, − to evaluate the strength of inhibition of the test substance.
# [2] = system: Human Umbilical Vein Endothelial Cells (HUVECs); experiment: Inhibition against sandwich tube formation by vascular endothelial cells in response to stimulation by VEGF; assay type: cell-based; conditions: HUVEC in collagen gel sandwich, stimulation by VEGF (25 ng/ml VEGF and 10 ng/ml EGF), 4th day, total tube length, read-out: IC50 (concentration required for 50% inhibition of tube formation)
# Summary of the method: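 HUVECs were sandwiched between collagen gel layers in serum-free medium with 25 ng/ml VEGF plus 10 ng/ml EGF, with test substance added above the gel at 37 °C. On day 4 tubes were MTT-stained and total tube length measured by image analysis. IC50 is the concentration halving tube length relative to no-compound wells.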
# T1 sequence (P35968 786-1356 limits assumed): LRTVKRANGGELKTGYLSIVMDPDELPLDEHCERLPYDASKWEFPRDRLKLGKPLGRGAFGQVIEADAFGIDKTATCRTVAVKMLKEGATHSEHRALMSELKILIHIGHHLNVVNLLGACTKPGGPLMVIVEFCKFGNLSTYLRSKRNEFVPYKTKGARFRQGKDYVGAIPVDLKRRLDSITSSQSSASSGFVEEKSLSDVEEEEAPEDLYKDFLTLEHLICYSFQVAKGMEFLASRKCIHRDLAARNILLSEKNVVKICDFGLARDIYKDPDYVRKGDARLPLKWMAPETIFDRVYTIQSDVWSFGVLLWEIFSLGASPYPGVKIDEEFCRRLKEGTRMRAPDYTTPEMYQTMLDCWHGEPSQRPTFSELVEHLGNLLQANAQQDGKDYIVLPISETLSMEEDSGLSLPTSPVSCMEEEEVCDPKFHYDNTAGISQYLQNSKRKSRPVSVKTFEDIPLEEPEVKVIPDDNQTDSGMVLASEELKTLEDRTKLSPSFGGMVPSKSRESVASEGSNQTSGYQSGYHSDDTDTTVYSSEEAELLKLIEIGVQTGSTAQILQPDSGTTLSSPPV
smiles,measurement,setting,value
"COCCOc1cc2nccc(Oc3ccc(NC(=O)Nc4ccc(F)cc4)cc3)c2cc1C#N [Example 10, N-(4-(6-cyano-7-(2-methoxyethoxy)-4-quinolyl)oxyphenyl)-N′-(4-fluorophenyl)urea]",IC50,VEGFR2,4.9 nM
"COCCOc1cc2nccc(Oc3ccc(NC(=O)Nc4cccc(OC)c4)cc3)c2cc1C#N [Example 14, N-(4-(6-Cyano-7-(2-methoxyethoxy)-4-quinolyl)oxyphenyl)-N′-(3-methoxyphenyl)urea]",IC50,VEGFR2,2.7 nM
"COCCOc1cc2nccc(Oc3ccc(NC(=O)Nc4cccc(O)c4)cc3)c2cc1C#N [Example 15, N-(4-(6-Cyano-7-(2-methoxyethoxy)-4-quinolyl)oxyphenyl)-N′-(3-hydroxyphenyl)urea]",IC50,VEGFR2,8.7 nM
"COCCOc1cc2nccc(Oc3ccc(NC(=O)Nc4cccc(S(C)(=O)=O)c4)cc3)c2cc1C#N [Example 21, N-(4-(6-Cyano-7-(2-methoxyethoxy)-4-quinolyl)oxyphenyl)-N′-(3-(methylsulfonyl)phenyl)urea]",IC50,VEGFR2,4.3 nM
"CCN(CC)CCCOc1cc2nccc(Oc3ccc(NC(=O)Nc4ccc(F)cc4)cc3)c2cc1C#N [Example 30, N-(4-(6-Cyano-7-(3-(diethylamino)propoxy)-4-quinolyloxy)phenyl)-N′-(4-fluorophenyl)urea]",IC50,VEGFR2,22 nM
N#Cc1cc2c(Oc3ccc(NC(=O)Nc4ccc(F)cc4)cc3)ccnc2cc1OCCCN1CCOCC1 [Example 31],IC50,VEGFR2,17 nM
"COCCOc1cc2nccc(Oc3ccc(NC(=O)Nc4cccc(SC)c4)c(F)c3)c2cc1C#N [Example 33, N-(4-(6-Cyano-7-(2-methoxyethoxy)-4-quinolyl)oxy-2-fluorophenyl)-N′-(3-(methylsulfanyl)phenyl)urea]",IC50,VEGFR2,6.9 nM
"N#Cc1cc2c(Oc3ccc(NC(=O)Nc4ccc(F)cc4F)c(F)c3)ccnc2cc1OCc1ccccc1 [Example 81, N-(4-(6-Cyano-7-benzyloxy-4-quinolyl)oxy-2-fluorophenyl)-N′-(2,4-difluorophenyl)urea]",number of tubes formed in the fibrin gel (score) at 0.01 μM,[1],++
same,number of tubes formed in the fibrin gel (score) at 0.1 μM,[1],−
same,number of tubes formed in the fibrin gel (score) at 1.0 μM,[1],−
same,IC50,[2],1.8 nM
"CCN(CC)CCOc1ccc(-c2cc3c(Oc4ccc(NC(=O)NC5CC5)c(Cl)c4)ncnc3[nH]2)cc1 [Example 153, 1-(2-Chloro-4-{6-[4-(2-diethylaminoethoxy)-phenyl]-7H-pyrrolo[2,3-d]pyrimidin-4-yloxy}phenyl)-3-cyclopropylurea]",number of tubes formed in the fibrin gel (score) at 0.01 μM,[1],+/−
same,number of tubes formed in the fibrin gel (score) at 0.1 μM,[1],−
same,number of tubes formed in the fibrin gel (score) at 1.0 μM,[1],−
same,IC50,[2],0.02 nM
"O=C(CCCN1CCC(O)CC1)Nc1cc(Oc2ccc3c(ccn3C(=O)Nc3ccccc3)c2)ccn1 [Example 189, N1-Phenyl-5-[(2-{[4-(4-hydroxypiperidino)butanoyl]amino}-4-pyridyl)oxy]-1H-1-indolecarboxamide]",number of tubes formed in the fibrin gel (score) at 0.01 μM,[1],+/−
same,number of tubes formed in the fibrin gel (score) at 0.1 μM,[1],−
same,number of tubes formed in the fibrin gel (score) at 1.0 μM,[1],−
same,IC50,[2],0.3 nM
"CCN(CC)CCCOc1cc2nccc(Oc3ccc4c(ccn4C(=O)NC4CC4)c3)c2cc1C#N [Example 298, 5-[6-Cyano-7-(3-diethylaminopropoxy)quinolin-4-yloxy]indole-1-carboxylic acid cyclopropylamide]",number of tubes formed in the fibrin gel (score) at 0.01 μM,[1],+/−
same,number of tubes formed in the fibrin gel (score) at 0.1 μM,[1],−
same,number of tubes formed in the fibrin gel (score) at 1.0 μM,[1],−
same,IC50,[2],0.7 nM
"COc1cc2nccc(Oc3ccc(NC(=O)NC4CC4)c(Cl)c3)c2cc1C(N)=O [Example 368, 4-(3-Chloro-4-(cyclopropylaminocarbonyl)aminophenoxy)-7-methoxy-6-quinolinecarboxamide]",number of tubes formed in the fibrin gel (score) at 0.01 μM,[1],−
same,number of tubes formed in the fibrin gel (score) at 0.1 μM,[1],−
same,number of tubes formed in the fibrin gel (score) at 1.0 μM,[1],−
same,IC50,[2],5.4 nM
"COc1cc2nccc(Oc3ccc(NC(=O)NC4CC4)c(Cl)c3)c2cc1C(=O)NCCF [Example 415, N6-(2-Fluoroethyl)-4-(3-chloro-4-(((cyclopropylamino)carbonyl)amino)phenoxy)-7-methoxy-6-quinolinecarboxamide]",number of tubes formed in the fibrin gel (score) at 0.01 μM,[1],+/−
same,number of tubes formed in the fibrin gel (score) at 0.1 μM,[1],−
same,number of tubes formed in the fibrin gel (score) at 1.0 μM,[1],−
same,IC50,[2],3.8 nM
"CN1CCC(COc2cc3nccc(Oc4ccc(NC(=O)NC5CC5)c(Cl)c4)c3cc2C#N)CC1 [Example 422, N-(2-Chloro-4-((6-cyano-7-((1-methyl-4-piperidyl)methoxy)-4-quinolyl)oxy)phenyl)-N′-cyclopropylurea]",number of tubes formed in the fibrin gel (score) at 0.01 μM,[1],+
same,number of tubes formed in the fibrin gel (score) at 0.1 μM,[1],−
same,number of tubes formed in the fibrin gel (score) at 1.0 μM,[1],−
same,IC50,[2],4.8 nM
